# Read-outs that look alike come from different tables or passages of the source.
# Assays:
# PDE4Bcat = target: T1, PDE4Bcat (Homo sapiens, UniProt Q07343); assay: Inhibition of phosphodiesterase activity, [3H]-cAMP hydrolysis, recombinant PDE4Bcat; assay type: biochemical; details: cAMP 2 μmol/L, read-out: IC50(μmol/L) PDE4
# T1 construct: catalytic domain (indicated as “cat,” hereinafter), PDE4Bcat; made in house; host or cells: Sf9 insect cells (baculovirus, Bac-to-Bac)
# Method: (§1) RT-PCR was performed to isolate cDNA fragments of PDE3A catalytic domain (indicated as “cat,” hereinafter), PDE4Bcat, PDE5Acat and PDE10A1 from human RNA. Using Gateway system (Invitrogen) and Bac-to-Bac (registered trademark) Baculovirus Expression system (Invitrogen), the isolated cDNA fragments were transfected into Sf9 insect cells for expression of the PDE proteins. The recombinant PDE3Acat, PDE4Bcat, PDE5Acat and PDE10A1 proteins were isolated from culture supernatant or cell extracts of Sf9 cells expressed high levels of these proteins by ion-exchange chromatography and used for the following experiments.
# (§2) 4 mmol/L solution of each test compound was serially diluted 4-fold with 15% DMSO solution to prepare the solutions with concentrations of 15 nmol/L to 4 mmol/L (final concentrations=1.5 nmol/L-400 μmol/L). 10 μL of each test compound solution was added to each well of 96 plate with 10 μL of [^3H]-cAMP or [^3H]-cGMP solution, diluted with a buffer (40 mmol/L Tris-HCl (pH 7.4), 10 mmol/L MgCl2) to the concentration shown in Table 20 and 40 μL of each of the human recombinant PDE proteins in units shown in Table 20. The plate was incubated at 30° C. for 20 min, and then at 65° C. for 2 min. Subsequently, 25 μL of 1 mg/mL 5′-nucleotidase (Crotalus atrox venom, Sigma) was added to each well and the plate was incubated at 30° C. for 10 min. 200 μL of Dowex solution (300 mg/mL Dowex 1×8-400 (Sigma Aldrich), 33% ethanol) was then added to each well and the plate was shaken at 4° C. for 20 min. Subsequently, 200 μL of MicroScint 20 (Packard) was added to each well and the radioactivity of each sample was measured by a scintillation counter (Topcount, Packard) IC50 was calculated by GraphPad Prism v3.03 (GraphPad Software).
# [1] = system: histamine-induced bronchoconstriction; assay: Histamine-induced bronchoconstriction in guinea pigs; assay type: in vivo, guinea pig; details: Cavia porcellus, iv, 0.5 min, 30 seconds after administration, histamine 12.5 μg/kg i.v.; for inhibition in vivo at 1 mg/kg: test compound 1 mg/kg i.v.; for inhibition in vivo at 0.1 mg/kg: values in brackets: test compound 0.1 mg/kg, i.v.
# Method: Guinea pigs were anesthetized with pentobarbital (30 mg/kg, i.p.). A cannula for IV administeration, a cannula for collecting blood and measurement of blood pressure and a trachea cannula were inserted into the left exterior jugular vein, right interior carotid artery and trachea, respectively. The animals were placed under artificial respiration at 60 times/min and 10 mL/kg/stroke. The airflow through the branch of the tracheal cannula was measured by a bronchospasm transducer (Ugo-Basile) and recorded on a computer via Power Lab (ADInstruments Japan). The animals were immobilized with gallamine (10 mg/kg, i.v.), then administered histamine at 10-minute intervals (12.5 μg/kg, i.v.). […] To examine the inhibitory activity of test compound, the histamine-induced bronchoconstriction was measured after 30 seconds of drug administration. The bronchoconstriction was recorded as the change of the airflow: The results were shown by percentages of the maximum histamine-induced bronchoconstriction. Each test compound was prepared as a 10 mg/mL solution in DMSO. Gallamine was prepared as a 10 mg/mL solution in physiological saline. Histamine was prepared as a 1 mg/mL solution in physiological saline, which was diluted with physiological saline to 62.5 μg/mL for use.
# [2] = target: T2, PDE3A catalytic domain (PDE3Acat) (Homo sapiens, UniProt Q14432); assay: Inhibition of phosphodiesterase activity, [3H]-cAMP hydrolysis, recombinant PDE3Acat; assay type: biochemical; details: cAMP 2 μmol/L
# T2 construct: cDNA fragments of PDE3A catalytic domain (indicated as “cat,” hereinafter); made in house; host or cells: Sf9 insect cells (baculovirus, Bac-to-Bac)
# T2 sequence (Q14432 674-1093 limits assumed): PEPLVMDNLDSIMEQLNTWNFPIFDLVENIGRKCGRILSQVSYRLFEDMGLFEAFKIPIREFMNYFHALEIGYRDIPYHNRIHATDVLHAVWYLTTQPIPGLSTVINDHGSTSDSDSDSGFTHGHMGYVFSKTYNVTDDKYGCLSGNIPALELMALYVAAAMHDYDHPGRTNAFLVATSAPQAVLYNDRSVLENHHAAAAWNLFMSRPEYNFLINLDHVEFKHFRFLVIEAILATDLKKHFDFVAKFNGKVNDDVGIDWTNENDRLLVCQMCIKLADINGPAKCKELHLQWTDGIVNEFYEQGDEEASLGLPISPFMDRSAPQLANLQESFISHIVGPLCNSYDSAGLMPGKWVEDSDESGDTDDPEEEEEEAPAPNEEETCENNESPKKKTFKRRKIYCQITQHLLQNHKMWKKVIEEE
# Method: as §1, §2
# PDE10A1 = target: T3, PDE10A1 (Homo sapiens, UniProt Q9Y233); assay: Inhibition of phosphodiesterase activity, [3H]-cAMP hydrolysis, recombinant PDE10A1; assay type: biochemical; details: human recombinant PDE10A1, cAMP 0.2 μmol/L; read-out: IC50(μmol/L) PDE10
# T3 construct: made in house; host or cells: Sf9 insect cells (baculovirus, Bac-to-Bac)
# T3 sequence (Q9Y233 1-779 isoform Q9Y233-1): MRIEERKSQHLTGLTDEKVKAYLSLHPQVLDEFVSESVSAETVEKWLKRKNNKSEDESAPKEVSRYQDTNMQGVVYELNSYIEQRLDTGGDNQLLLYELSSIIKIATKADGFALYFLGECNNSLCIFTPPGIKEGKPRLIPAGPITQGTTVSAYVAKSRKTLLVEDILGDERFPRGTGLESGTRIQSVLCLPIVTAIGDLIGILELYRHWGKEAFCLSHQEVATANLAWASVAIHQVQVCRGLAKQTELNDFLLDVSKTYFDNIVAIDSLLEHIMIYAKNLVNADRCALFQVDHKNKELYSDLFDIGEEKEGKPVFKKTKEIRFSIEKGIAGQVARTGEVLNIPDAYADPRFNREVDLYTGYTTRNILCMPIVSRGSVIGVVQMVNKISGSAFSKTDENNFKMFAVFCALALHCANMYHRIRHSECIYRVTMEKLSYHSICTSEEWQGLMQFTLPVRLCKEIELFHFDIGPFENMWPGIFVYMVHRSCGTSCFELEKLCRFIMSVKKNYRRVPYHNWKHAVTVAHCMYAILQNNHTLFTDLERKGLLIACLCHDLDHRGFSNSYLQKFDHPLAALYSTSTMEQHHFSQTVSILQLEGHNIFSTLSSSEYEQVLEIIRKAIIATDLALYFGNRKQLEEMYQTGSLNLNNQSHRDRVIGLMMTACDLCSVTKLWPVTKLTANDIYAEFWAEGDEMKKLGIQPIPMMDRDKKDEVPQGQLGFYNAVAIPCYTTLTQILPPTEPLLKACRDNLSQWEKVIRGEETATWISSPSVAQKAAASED
# Method: as §1, §2
# [3] = system: isolated guinea pig tracheal smooth muscles; assay: Relaxant effect on histamine-induced contraction of isolated guinea pig tracheal smooth muscles; details: Cavia porcellus; histamine 10^-5 mol/L contraction, relaxation as % of maximum response to papaverine 10^-4 mol/L; read-out: IC50(μmol/L), concentration required to 50% relaxation
# Method: Guinea pigs were exsanguinated and the trachea was immediately isolated and cut into 2 to 3 cartilage ring segments to prepare tracheal ring preparations. The tracheal rings were suspended in 10 mL of Tyrode's solution bubbled with a gaseous mixture of 95% O2+5% CO2 at 37° C. The composition of the Tyrode's solution (mM) was as follows: NaCl 136.9, KCl 2.7, CaCl2 1.8, MgCl2 1.0, NaH2PO4 0.4, NaHCO3 11.9 and Gucose 5.6. The contractile response was measured by an isometric transducer (UM-203, KISHIMOTO) and recorded on a recorder ([…] SERVOCORDER SR6221). After about 1 hour incubation with 1.5 g of resting tention, histamine (10^−5 mol/L) was added to induce the contractile response. After confirming the response, the preparations were washed with Tyrode's solution (10 mL×3). Then indomethacin (10^−5 mol/L) was applied and the preparations were equilibrated for at least 30 min under 1.5 g tension. Subsequently, histamine (10^−5 mol/L) was applied. After the contraction reached a steady state, each compound was added in a cumulative manner (10^−8 mol/L-3×10^−5 mol/L). Each compound was prepared as a 10^−1 mol/L solution in DMSO, which was diluted with distilled water for use. After addition of test compounds, papaverine (10^−4 mol/L) was added to determine the maximum relaxation of the preparation. Relaxant response of test compounds were expressed as a percentage of the maximum response to papaverine. IC50 was defined as a concentration of the compound required to 50% relaxation. DMSO was used as a control.
# PDE5Acat = PDE5Acat (Homo sapiens, UniProt O76074); assay: Inhibition of phosphodiesterase activity, [3H]-cGMP hydrolysis, recombinant PDE5Acat; assay type: biochemical; details: cGMP 2 μmol/L, read-out: IC50(μmol/L) PDE5
# Method: as §1, §2
# [4] = human recombinant PDE3Acat, read-out: IC50(μmol/L) PDE3
# [5] = IC50(μmol/L) PDE3, human recombinant PDE3Acat
# T1 sequence (Q07343 330-659 limits assumed): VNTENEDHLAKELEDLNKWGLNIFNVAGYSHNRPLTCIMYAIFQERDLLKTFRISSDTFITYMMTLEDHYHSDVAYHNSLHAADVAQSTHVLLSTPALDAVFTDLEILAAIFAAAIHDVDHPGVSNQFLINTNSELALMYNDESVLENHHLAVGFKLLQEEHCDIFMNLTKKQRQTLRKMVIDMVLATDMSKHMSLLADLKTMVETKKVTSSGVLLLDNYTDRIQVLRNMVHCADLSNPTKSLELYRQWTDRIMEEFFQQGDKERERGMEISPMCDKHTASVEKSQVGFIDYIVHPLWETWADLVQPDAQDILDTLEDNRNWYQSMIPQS
Structure (SMILES),IC50 (PDE4Bcat),inhibition in vivo at 1 mg/kg [1],"IC50 [2, 4]",IC50 (PDE10A1),IC50 [3],IC50 (PDE5Acat),inhibition in vivo at 0.1 mg/kg [1],"IC50 [2, 5]"
"CCc1cc2c(C3=NNC(=O)CC3C)cc(Cl)cn2n1 (single isomer, unassigned; (+)) [Example 313, (+)-6-(6-chloro-2-ethyl-pyrazolo[1,5-a]pyridine-4-yl)-5-methyl-4,5-dihydro-3-(2H)-pyridazinone]",1 to 10 µmol/L,≥ 90%,1 to 10 µmol/L,0.1 to 1 µmol/L,0.5 µmol/L,> 10 µmol/L,–,–
"CCc1cc2c(C3=NNC(=O)CC3C)ccc(OC)n2n1 (single isomer, unassigned; (+)) [Example 315, (+)-6-(2-ethyl-7-methoxy-pyrazolo[1,5-a]pyridine-4-yl)-5-methyl-4,5-dihydro-3-(2H)-pyridazinone]",1 to 10 µmol/L,–,–,1 to 10 µmol/L,–,> 10 µmol/L,≥ 90%,1 to 10 µmol/L
"COc1ccc(C2=NNC(=O)CC2C)c2cc(C(F)(F)F)nn12 (single isomer, unassigned; (+)) [Example 317, (+)-6-(7-methoxy-2-trifluoromethyl-pyrazolo[1,5-a]pyridine-4-yl)-5-methyl-4,5-dihydro-3-(2H)-pyridazinone]",< 1 µmol/L,–,0.1 to 1 µmol/L,1 to 10 µmol/L,0.127 µmol/L,> 10 µmol/L,≥ 90%,–
"CCc1cc2c(C3=NNC(=O)CC3C)cc(Cl)cn2n1 (single isomer, unassigned; (-)) [Example 314, (−)-6-(6-chloro-2-ethyl-pyrazolo[1,5-a]pyridine-4-yl)-5-methyl-4,5-dihydro-3-(2H)-pyridazinone]",0.1 to 1 µmol/L,–,> 10 µmol/L,> 10 µmol/L,–,> 10 µmol/L,80 to 90%,–
"CCc1cc2c(C3=NNC(=O)CC3C)ccc(OC)n2n1 (single isomer, unassigned; (-)) [Example 316, (−)-6-(2-ethyl-7-methoxy-pyrazolo[1,5-a]pyridine-4-yl)-5-methyl-4,5-dihydro-3-(2H)-pyridazinone]",< 1 µmol/L,–,–,> 10 µmol/L,0.676 µmol/L,> 10 µmol/L,–,> 10 µmol/L
CCc1cc2c(C3=NNC(=O)CC3)cc(Cl)cn2n1 [Example 202],> 10 µmol/L,≥ 90%,> 10 µmol/L,1 to 10 µmol/L,–,> 10 µmol/L,–,–
"CCc1cc2c(C3=NNC(=O)CC3)ccc(OC)n2n1 [Example 210, 6-(2-ethyl-7-methoxy-pyrazolo[1,5-a]pyridine-4-yl)-4,5-dihydro-3-(2H)-pyridazinone]",1 to 10 µmol/L,≥ 90%,> 10 µmol/L,> 10 µmol/L,–,> 10 µmol/L,–,–
CCc1nn2c([S+](C)[O-])ccc(C3=NNC(=O)CC3C)c2c1O (centres unmarked) [Example 250],0.1 to 1 µmol/L,–,1 to 10 µmol/L,–,–,–,≥ 90%,–
"COC(=O)c1c(C(C)C)nn2c(OC)ccc(-c3ccc(=O)n(Cc4ccccc4)n3)c12 [Example 266, 2-benzyl-6-(7-methoxy-3-methoxycarbonyl-2-isopropyl-pyrazolo[1,5-a]pyridine-4-yl)-3-(2H)-pyridazinone]",1 to 10 µmol/L,–,> 10 µmol/L,> 10 µmol/L,–,> 10 µmol/L,–,–
"COc1ccc(-c2ccc(=O)n(Cc3ccccc3)n2)c2c(C(=O)O)c(C(C)C)nn12 [Example 267, 2-benzyl-6-(3-carboxy-7-methoxy-2-isopropyl-pyrazolo[1,5-a]pyridine-4-yl)-3-(2H)-pyridazinone]",1 to 10 µmol/L,–,> 10 µmol/L,> 10 µmol/L,–,> 10 µmol/L,–,–
COc1ccc(-c2ccc(=O)n(Cc3ccccc3)n2)c2cc(C(C)C)nn12 [Example 272],–,–,–,0.1 to 1 µmol/L,–,–,–,–
COc1ccc(-c2ccc(=O)n(Cc3cccnc3)n2)c2cc(C(C)C)nn12 [Example 273],1 to 10 µmol/L,–,> 10 µmol/L,1 to 10 µmol/L,–,> 10 µmol/L,–,–
"COc1ccc(-c2cc(C)c(=O)[nH]n2)c2cc(C(C)C)nn12 [Example 278, 6-(7-methoxy-2-isopropyl-pyrazolo[1,5-a]pyridine-4-yl)-4-methyl-3-(2H)-pyridazinone]",0.1 to 1 µmol/L,–,> 10 µmol/L,> 10 µmol/L,–,> 10 µmol/L,–,–
COc1ccc(C2=NNC(=O)CC2C)c2cc(C(C)C)nn12 (centres unmarked) [Example 282],0.1 to 1 µmol/L,≥ 90%,1 to 10 µmol/L,1 to 10 µmol/L,–,> 10 µmol/L,–,–
COc1ccc(C2=NNC(=O)C(C)C2)c2cc(C(C)C)nn12 (centres unmarked) [Example 283],0.1 to 1 µmol/L,–,> 10 µmol/L,> 10 µmol/L,–,> 10 µmol/L,–,–
COc1ccc(C2=NN(Cc3ccccc3)C(=O)CC2)c2cc(C(C)C)nn12 [Example 284],–,–,–,1 to 10 µmol/L,–,–,–,–
COc1ccc(C2=NN(Cc3cccnc3)C(=O)CC2)c2cc(C(C)C)nn12 [Example 285],1 to 10 µmol/L,–,> 10 µmol/L,1 to 10 µmol/L,–,> 10 µmol/L,–,–
"COc1ccc(-c2ccc(=O)[nH]n2)c2cc(C(F)(F)F)nn12 [Example 302, 6-(2-trifluoromethyl-7-methoxy-pyrazolo[1,5-a]pyridine-4-yl)-3-(2H)-pyridazinone]",0.1 to 1 µmol/L,–,1 to 10 µmol/L,–,–,–,≥ 90%,–
CCc1cc2c(-c3ccc(=O)[nH]n3)ccc(OC)n2n1 [Example 306],1 to 10 µmol/L,≥ 90%,1 to 10 µmol/L,> 10 µmol/L,–,> 10 µmol/L,–,–
"CCc1cc2c(C3=NN(Cc4cccnc4)C(=O)CC3C)cc(Cl)cn2n1 (centres unmarked) [Example 312, 6-(6-chloro-2-ethyl-pyrazolo[1,5-a]pyridine-4-yl)-4,5-dihydro-5-methyl-2-(pyridine-3-ylmethyl)-3-(2H)-pyridazinone]",1 to 10 µmol/L,–,> 10 µmol/L,> 10 µmol/L,–,> 10 µmol/L,–,–

# Source: patent US7763617B2, “Pyrazolopyridine-4-yl pyridazinone derivatives and addition salts thereof, and PDE inhibitors comprising the same derivatives or salts as active ingredient” (Kyorin Pharmaceutical Co., Ltd., priority 2005, dated 2010)
